One may read the Ki as the dissociation constant of the complex between target and ligand, obtained from inhibition or displacement.

The test deals with T1, H3R membranes (human histamine 3 receptor) (Homo sapiens, UniProt Q9Y5N1).
T1 construct: expressed in transfected cells; pcDNA3.1(+) vector, G418 selection)
The experiment in a line: [35S] GTP γ [S] Binding Assay. The conditions noted are these: inhibition of [35S]GTPγS binding to membranes from H3R8-expressing HEK293 cells in the presence of agonist R(−)alpha methylhistamine. Format: biochemical. On the procedure: Membranes isolated as described in (Preparation of Histamine Receptor Subtype Membranes) were used in a [35S]GTPχS functional assay. Binding of [35S]GTPχS to membranes indicates agonist activity. Compounds of the invention of Formula I were tested for their ability to inhibit binding in the presence of agonists. Alternately, the same transfected cell lines were used for a cAMP assay wherein H3R agonists inhibited forskolin-activated synthesis of cAMP. Compounds of Formula I were tested for their ability to permit forskolin-stimulated cAMP synthesis in the presence of agonist. cDNA for the human histamine 3 receptor was cloned and expressed as described in (A. Preparation H1R membranes), above. Transfected cells were selected using G418 ([…]), grown, and tested for histamine binding by the SPA described above. For total binding, cells were assayed in a SPA reaction described above containing 50 mM Tris-HCL (assay buffer), pH 7.6, 1 mg wheat germ agglutinin SPA beads (Amersham Pharmacia Biotech, #RPNQ0001), and 1 nM (^3H)-n-alpha-methylhistamine (NEN, NET1027) (total volume per well=200 μl). Thioperimide was added to determine non-specific binding. Several clones were selected as positive for binding, and a single clone (H3R8) was used to prepare membranes for binding studies described above. […] Plates were counted in Wallac Trilux 1450 Microbeta scintillation counter for 1 minute. […]

T1 sequence (Q9Y5N1 whole entry): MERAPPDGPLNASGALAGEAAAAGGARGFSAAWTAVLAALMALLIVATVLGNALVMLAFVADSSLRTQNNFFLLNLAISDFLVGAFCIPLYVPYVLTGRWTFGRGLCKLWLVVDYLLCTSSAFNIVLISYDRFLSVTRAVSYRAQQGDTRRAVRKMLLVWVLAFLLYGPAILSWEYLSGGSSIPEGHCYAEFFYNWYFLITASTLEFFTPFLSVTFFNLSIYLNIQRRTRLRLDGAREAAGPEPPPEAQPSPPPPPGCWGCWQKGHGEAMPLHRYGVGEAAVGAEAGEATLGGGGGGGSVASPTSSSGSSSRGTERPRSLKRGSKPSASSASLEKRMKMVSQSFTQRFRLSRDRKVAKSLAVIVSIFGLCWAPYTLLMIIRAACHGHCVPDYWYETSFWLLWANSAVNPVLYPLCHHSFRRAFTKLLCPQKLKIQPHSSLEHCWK

As for `O=C(c1ccc(OCc2cnccn2)cc1)N1CCC[C@H]1CN1CCCC1`, the Ki came to 4.1 nM.

Regarding `COc1ccc(COc2ccc(C(=O)N3CCC[C@H]3CN3CCCC3)cc2)cc1`, the Ki was 19 nM.
